The values that follow come from ChEMBL document CHEMBL2074262, “Molecular identification and characterization of novel members of the human organic anion transporter (OATP) family” (Biochem Biophys Res Commun, 2000).

Holding throughout (assay type): functional, cell-based
Data set [1] has as its target T1, Solute carrier organic anion transporter family member 4A1 (Homo sapiens, UniProt Q96BD0).
T1 sequence (Q96BD0 whole entry): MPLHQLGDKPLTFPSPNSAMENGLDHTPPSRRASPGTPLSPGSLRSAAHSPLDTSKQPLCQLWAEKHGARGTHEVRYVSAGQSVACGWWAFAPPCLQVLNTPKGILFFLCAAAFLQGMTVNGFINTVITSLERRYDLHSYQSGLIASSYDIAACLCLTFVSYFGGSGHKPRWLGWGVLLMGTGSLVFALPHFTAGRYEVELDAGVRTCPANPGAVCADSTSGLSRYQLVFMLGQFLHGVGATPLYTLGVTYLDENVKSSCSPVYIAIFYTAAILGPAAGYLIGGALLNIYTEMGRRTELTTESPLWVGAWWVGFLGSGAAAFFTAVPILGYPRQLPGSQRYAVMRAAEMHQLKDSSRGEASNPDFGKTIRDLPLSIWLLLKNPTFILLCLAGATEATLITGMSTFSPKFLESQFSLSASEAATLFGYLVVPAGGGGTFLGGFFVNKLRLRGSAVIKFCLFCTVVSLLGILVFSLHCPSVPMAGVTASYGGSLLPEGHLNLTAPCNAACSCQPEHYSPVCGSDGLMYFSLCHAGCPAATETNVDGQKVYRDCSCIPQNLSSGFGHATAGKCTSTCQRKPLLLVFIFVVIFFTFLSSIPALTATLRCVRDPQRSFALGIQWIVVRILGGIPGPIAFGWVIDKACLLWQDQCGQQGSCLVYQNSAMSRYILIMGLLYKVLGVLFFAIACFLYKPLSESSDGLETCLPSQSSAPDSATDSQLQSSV
Nature of the data set: TP_TRANSPORTER: uptake in OATP-E-expressing HEK293 cells.

Data set [2] deals with T2, Solute carrier organic anion transporter family member 2B1 (Homo sapiens, UniProt O94956).
T2 sequence (O94956 whole entry): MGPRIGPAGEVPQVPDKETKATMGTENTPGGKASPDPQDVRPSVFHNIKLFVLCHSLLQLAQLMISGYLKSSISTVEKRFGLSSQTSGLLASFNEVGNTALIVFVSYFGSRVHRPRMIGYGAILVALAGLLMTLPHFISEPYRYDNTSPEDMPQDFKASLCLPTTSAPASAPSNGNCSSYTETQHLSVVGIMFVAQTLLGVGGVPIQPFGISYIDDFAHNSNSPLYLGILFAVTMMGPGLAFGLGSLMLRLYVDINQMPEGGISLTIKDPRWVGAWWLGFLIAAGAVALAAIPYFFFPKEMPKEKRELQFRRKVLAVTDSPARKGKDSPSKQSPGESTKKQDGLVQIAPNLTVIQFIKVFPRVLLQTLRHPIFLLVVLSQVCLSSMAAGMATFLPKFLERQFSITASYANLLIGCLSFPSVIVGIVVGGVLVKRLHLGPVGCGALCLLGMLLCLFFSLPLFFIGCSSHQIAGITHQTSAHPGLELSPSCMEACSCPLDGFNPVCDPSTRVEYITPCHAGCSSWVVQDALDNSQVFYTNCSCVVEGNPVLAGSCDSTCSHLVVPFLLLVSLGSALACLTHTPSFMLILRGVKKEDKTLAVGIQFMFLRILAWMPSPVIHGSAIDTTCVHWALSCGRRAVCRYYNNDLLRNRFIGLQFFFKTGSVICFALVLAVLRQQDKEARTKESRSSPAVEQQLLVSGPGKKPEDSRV
Nature of the data set: TP_TRANSPORTER: uptake in OATP-B-expressing HEK293 cells.

In data set [3] the target is T3, Solute carrier organic anion transporter family member 3A1 (Homo sapiens, UniProt Q9UIG8).
T3 sequence (Q9UIG8 whole entry): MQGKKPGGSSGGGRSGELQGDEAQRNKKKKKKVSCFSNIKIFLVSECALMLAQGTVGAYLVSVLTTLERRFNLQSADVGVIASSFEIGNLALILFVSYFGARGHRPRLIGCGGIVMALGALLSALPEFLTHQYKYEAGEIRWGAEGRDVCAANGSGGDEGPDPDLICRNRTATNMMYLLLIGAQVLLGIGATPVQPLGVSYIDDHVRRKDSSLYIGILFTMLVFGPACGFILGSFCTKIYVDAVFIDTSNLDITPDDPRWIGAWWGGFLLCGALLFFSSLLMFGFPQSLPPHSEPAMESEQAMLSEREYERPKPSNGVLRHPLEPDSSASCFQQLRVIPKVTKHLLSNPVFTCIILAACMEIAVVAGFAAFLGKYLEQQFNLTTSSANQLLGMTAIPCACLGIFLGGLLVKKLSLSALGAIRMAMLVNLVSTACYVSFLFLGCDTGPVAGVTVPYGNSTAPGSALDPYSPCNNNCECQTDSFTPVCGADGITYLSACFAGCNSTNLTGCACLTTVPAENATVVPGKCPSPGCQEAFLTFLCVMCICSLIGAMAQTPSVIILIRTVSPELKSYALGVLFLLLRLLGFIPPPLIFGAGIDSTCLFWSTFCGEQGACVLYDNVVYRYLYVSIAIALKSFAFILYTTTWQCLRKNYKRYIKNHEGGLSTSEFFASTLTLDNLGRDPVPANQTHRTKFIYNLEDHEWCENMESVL
Nature of the data set: TP_TRANSPORTER: uptake in OATP-D-expressing HEK293 cells.

Data set [4] concerns the target T4, Solute carrier organic anion transporter family member 1B1 (Homo sapiens, UniProt Q9Y6L6).
T4 sequence (Q9Y6L6 whole entry): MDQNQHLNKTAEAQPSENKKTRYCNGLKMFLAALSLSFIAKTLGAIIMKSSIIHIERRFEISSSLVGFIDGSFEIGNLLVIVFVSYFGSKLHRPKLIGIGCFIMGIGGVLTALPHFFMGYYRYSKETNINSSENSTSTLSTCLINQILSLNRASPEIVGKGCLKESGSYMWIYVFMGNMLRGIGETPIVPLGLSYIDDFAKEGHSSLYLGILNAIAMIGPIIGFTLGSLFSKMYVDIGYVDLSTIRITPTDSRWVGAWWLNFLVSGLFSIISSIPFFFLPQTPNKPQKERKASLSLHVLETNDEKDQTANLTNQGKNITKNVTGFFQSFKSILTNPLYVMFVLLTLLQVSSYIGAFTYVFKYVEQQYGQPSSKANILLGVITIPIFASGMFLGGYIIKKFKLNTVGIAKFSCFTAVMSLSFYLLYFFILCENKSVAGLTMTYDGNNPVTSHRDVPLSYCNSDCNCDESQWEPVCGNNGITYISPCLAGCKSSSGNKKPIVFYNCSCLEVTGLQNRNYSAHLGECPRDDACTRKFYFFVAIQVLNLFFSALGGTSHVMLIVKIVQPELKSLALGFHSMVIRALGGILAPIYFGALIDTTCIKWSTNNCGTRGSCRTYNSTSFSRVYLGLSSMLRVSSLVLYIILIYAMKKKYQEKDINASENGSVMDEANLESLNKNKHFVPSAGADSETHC
Nature of the data set: TP_TRANSPORTER: uptake in OATP-C-expressing HEK293 cells.

Regarding `C[C@]12CC[C@@H]3c4ccc(O)cc4CC[C@H]3[C@@H]1CC[C@@H]2O[C@@H]1O[C@H](C(=O)O)[C@@H](O)[C@H](O)[C@H]1O` [ESTRADIOL 17B GLUCURONIDE], in data set [1], the Activity entry is “substrate [+]”.
With `CCCCC[C@H](O)/C=C/[C@H]1[C@H](O)CC(=O)[C@@H]1C/C=C\CCCC(=O)O` [DINOPROSTONE], the Activity result in data set [1], in data set [2], in data set [3] and in data set [4] was “substrate [+]” each time.
As for `CC1(C)S[C@@H]2[C@H](NC(=O)Cc3ccccc3)C(=O)N2[C@H]1C(=O)O` [PENICILLIN G], the Activity result in data set [1], in data set [2], in data set [3] and in data set [4] was “substrate [+]” throughout.
For the compound `C[C@]12CC[C@@H]3c4ccc(OS(=O)(=O)O)cc4CC[C@H]3[C@@H]1CCC2=O` [ESTRONE SULFURIC ACID], the Activity entry in data set [1] and in data set [3] was “substrate [+]” each time.
